Consider seven compounds from patent US10160724B2, “Tetrahydropyridine derivatives and their use as antibacterial agents” (Dong-A St Co., Ltd., priority 2016, dated 2018).

In brackets after ≈: the same amount, converted by molar mass. Where two headings read alike, the source gives them in different places.

Experiment in all cases: In vitro antibiotic activity, agar dilution method (Mueller-Hinton agar, NCCLS)
Assay type in all cases: cell-based

Assay [1] concerns K. pneumoniae ATCC 29665. The settings on record: Klebsiella pneumoniae. Summed up:
(§1)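 MICs determined by agar dilution on Mueller-Hinton agar following NCCLS M7 guidance, against E. coli ATCC 25922, K. pneumoniae ATCC 29665 and P. aeruginosa PAO1.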

Assay [2] concerns P. aeruginosa PAO1. The settings on record: Pseudomonas aeruginosa. Summed up:
as §1

In assay [3] the test system is E. coli ATCC 25922. Conditions: Escherichia coli. Summed up:
as §1

Setting [4] is: ATCC29665, agar dilution, Mueller-Hinton agar, read-out: MIC for K. pneumoniae ATCC 29665.
Setting [5] is: PAO1, agar dilution, Mueller-Hinton agar, read-out: MIC for P. aeruginosa PAO1.
[6] abbreviates: ATCC25922, agar dilution, Mueller-Hinton agar, read-out: MIC for E. coli ATCC 25922.

A word on the MIC: it is the smallest concentration in the dilution series that meets the test's criterion for growth inhibition. As to `CN(C)c1ccc(C#Cc2ccc(C3=CCN(CCC(C)(C(=O)NO)S(C)(=O)=O)CC3)cc2)cc1` (stereo not drawn) [Example 1, 4-(4-(4-((4-(dimethylamino)phenyl)ethynyl)phenyl)-3,6-dihydropyridin-1(2H)-yl)-N-hydroxy-2-methyl-2-(methylsulfonyl)butanamide], the MIC is greater than 16 µg/mL in assay [1] (ATCC29665, read-out: MIC for K. pneumoniae ATCC 29665); greater than 16 µg/mL in assay [2] (PAO1, read-out: MIC for P. aeruginosa PAO1); greater than 16 µg/mL in assay [3] (ATCC25922, read-out: MIC for E. coli ATCC 25922).
`CC(CCN1CC=C(c2ccc(C#CCCCN)cc2)CC1)(C(=O)NO)S(C)(=O)=O` (stereo not drawn) [Example 21, 4-(4-(4-(5-aminopent-1-yn-1-yl)phenyl)-3,6-dihydropyridin-1(2H)-yl)-N-hydroxy-2-methyl-2-(methylsulfonyl)butanamide]: the MIC in assay [1] (setting [4]) was greater than 16 µg/mL; in assay [2] (setting [5]), greater than 16 µg/mL; in assay [3] (setting [6]), 8 to 16 µg/mL (≈ 18.5 to 36.9 µM).
Consider `CC(CCN1CC=C(c2ccc(-c3ccc(C#N)cc3)cc2)CC1)(C(=O)NO)S(C)(=O)=O` (stereo not drawn) [Example 66, 4-(4-(4′-cyano-[1,1′-biphenyl]-4-yl)-3,6-dihydropyridin-1(2H)-yl)-N-hydroxy-2-methyl-2-(methylsulfonyl)butanamide], for which the figures for the MIC in assay [1] (setting [4]), in assay [2] (setting [5]) and in assay [3] (setting [6]) were 1 to 8 µg/mL (≈ 2.2 to 17.6 µM), greater than 16 µg/mL and less than 1 µg/mL, respectively.
Taken in the same sequence, the figures for `CN(C)CC#Cc1ccc(C2=CCN(CCC(C)(C(=O)NO)S(C)(=O)=O)CC2)cc1F` (stereo not drawn) [Example 31, 4-(4-(4-(3-(dimethylamino)prop-1-yn-1-yl)-3-fluorophenyl)-3,6-dihydropyridin-1(2H)-yl)-N-hydroxy-2-methyl-2-(methylsulfonyl)butanamide] were 1 to 8 µg/mL (≈ 2.21 to 17.7 µM), 1 to 8 µg/mL (≈ 2.21 to 17.7 µM) and less than 1 µg/mL.
Taken in the same sequence, the figures for `CC(C)CC#Cc1ccc(C2=CCN(CCC(C)(C(=O)NO)S(C)(=O)=O)CC2)cc1` (stereo not drawn) [Example 13, N-hydroxy-2-methyl-4-(4-(4-(4-methylpent-1-yn-1-yl)phenyl)-3,6-dihydropyridin-1(2H)-yl)-2-(methylsulfonyl)butanamide] were 1 to 8 µg/mL (≈ 2.31 to 18.5 µM), 8 to 16 µg/mL (≈ 18.5 to 37 µM) and less than 1 µg/mL.
For `COc1ccsc1-c1ccc(C2=CCN(CCC(C)(C(=O)NO)S(C)(=O)=O)CC2)cc1.Cl` (stereo not drawn) [Example 71, N-hydroxy-4-(4-(4-(3-methoxythiophen-2-yl)phenyl)-3,6-dihydropyridin-1(2H)-yl)-2-methyl-2-(methylsulfonyl)butanamide hydrochloride] the same measures were less than 1 µg/mL, greater than 16 µg/mL and less than 1 µg/mL.
As to `CC(CCN1CC=C(c2ccc(C#CCO)cc2)CC1)(C(=O)NO)S(C)(=O)=O` (stereo not drawn) [Example 22, N-hydroxy-4-(4-(4-(3-hydroxyprop-1-yn-1-yl)phenyl)-3,6-dihydropyridin-1(2H)-yl)-2-methyl-2-(methylsulfonyl)butanamide], the MIC is greater than 16 µg/mL in assay [1] (setting [4]), 1 to 8 µg/mL (≈ 2.46 to 19.7 µM) in assay [2] (setting [5]) and 1 to 8 µg/mL (≈ 2.46 to 19.7 µM) in assay [3] (setting [6]).
